# Reference: patent US8791061B2, “Peptides for treating and preventing immune-related disorders, including treating and preventing infection by modulating innate immunity” (Soligenix, Inc., priority 2005, dated 2014)
# Experiments:
# [1] = system: methicillin-resistant Staphlococcus aureus (MRSA strain ATCC 33591, UC6685); experiment: Enhancing the efficacy of antibiotic treatment, MRSA infection of CD-1 mice; format: in vivo; conditions: peptide 60 mg/kg IP 24 hours prior to infection, in combination with vancomycin s.c. 1 and 5 hours post-infection; relative to vehicle or antibiotic alone; 5 or 8 days
# Procedure: Twenty-four hours prior to infection, peptide was administered at 60 mg/kg via IP injection to CD-1 mice (N=10 animals/group; FIG. 8A: male mice, FIG. 8B: female mice). Mice were then infected with methicillin-resistant Staphlococcus aureus (MRSA strain ATCC 33591 in FIG. 8A and UC6685 in FIG. 8B) via IP injection (1.5*10^7 in FIG. 8A and ˜4*10^5 in FIG. 8B). Vancomycin at the given dosage was administered twice subcutaneously 1 and 5 hours post-infection. Survival was monitored over 5 (FIG. 8A) or 8 (FIG. 8B) days.
# DPPIV [2] = biological target: T1, DPPIV (Mus musculus, UniProt P28843); experiment: Comparative DPPIV dose response curves in whole ICR mouse blood; format: biochemical; conditions: 2 h at 37° C., different concentrations
# T1 construct: The plasma was transferred to a 96-well assay plate for the DPPIV assay; from tissue; host or cells: pooled heparinized whole blood of ICR mice; plasma isolated after incubation
# Procedure: Dose response of SEQ. ID. NO. 5 of the present invention and SEQ. ID NO. 7 in PCT/CA02/01830, filed Dec. 2, 2002 (KSRIVPAIPVSLL). Peptides were incubated at different concentrations with whole ICR mouse blood for 2 h at 37° C. Blood incubated with acetate buffered saline (20 mM) was used as a control. Following incubation, plasma was isolated by centrifugation for 10 minutes at 4000 rcf. The substrate Gly-Pro-p-nitroanilide (0.8 mM) was added to the plasma and the enzymatic rate of DPPIV was determined by monitoring the increase in UV absorbance of the product p-nitroaniline. […] ID. NO.
# [3] = system: LPS stimulated cytokine response; experiment: Anti-inflammatory activity: ex vivo LPS stimulated cytokine response of PBMCs after in vivo peptide treatment; parameters: species or system mouse; conditions: 100 mg/kg intravenously, blood collected after 4 hours, PBMCs stimulated with LPS
# Procedure: The effect of peptide treatment on the ex vivo LPS stimulated cytokine response was measured. In these studies, SEQ ID NO 5 was administered intravenously at 100 mg/kg and after 4 hours, blood was collected from each mouse. PBMCs were isolated and stimulated with LPS and the resulting cytokine levels were determined.
# DPPIV [4] = biological target: T2, DPPIV (Homo sapiens, UniProt P27487); experiment: Plasma DPPIV activity assay with human blood; format: biochemical; conditions: 2 hours at 37° C., dose response
# T2 construct: from tissue; host or cells: heparinized whole blood of human volunteer donors; plasma isolated after incubation
# Procedure: Human blood was obtained by qualified medical personnel from volunteer donors and collected in heparinized blood collection tubes. Blood was aliquoted into 300 μL aliquots. The peptides were dissolved in acetate buffered saline, pH 5.5. 30 μL of various concentrations were added to 300 μL of blood and mixed by resuspension (final concentration in blood as indicated in FIG. 6). For the control, 30 μL of blank acetate buffered saline was added to 300 μL of blood. Each concentration was prepared in triplicate, whereas the control was prepared in six replicates. The samples were incubated at 37° C. in closed microtubes for two hours. After incubation the plasma was isolated from the samples by centrifugation at 4000 rcf. The plasma was transferred to a 96-well assay plate for the DPPIV assay. The assay was started by adding 5 μL of the DPPIV substrate gly-pro-p-nitroanilide (16 mM in de-ionized water) to 95 μL of plasma (concentration in plasma 0.8 mM) and the increase in UV absorbance (405 nm) was monitored over a 20 min time period. The rate of the production of p-nitroaniline by enzymatic cleavage of gly-pro-p-nitroanilide was taken as the activity of DPPIV (Durinx C et al., (2001) “Reference values for plasma dipeptidyl-peptidase IV activity and their association with other laboratory parameters”. Clin Chem Lab Med. 39(2):155-9.)
# T1 sequence (P28843 37-760 limits assumed): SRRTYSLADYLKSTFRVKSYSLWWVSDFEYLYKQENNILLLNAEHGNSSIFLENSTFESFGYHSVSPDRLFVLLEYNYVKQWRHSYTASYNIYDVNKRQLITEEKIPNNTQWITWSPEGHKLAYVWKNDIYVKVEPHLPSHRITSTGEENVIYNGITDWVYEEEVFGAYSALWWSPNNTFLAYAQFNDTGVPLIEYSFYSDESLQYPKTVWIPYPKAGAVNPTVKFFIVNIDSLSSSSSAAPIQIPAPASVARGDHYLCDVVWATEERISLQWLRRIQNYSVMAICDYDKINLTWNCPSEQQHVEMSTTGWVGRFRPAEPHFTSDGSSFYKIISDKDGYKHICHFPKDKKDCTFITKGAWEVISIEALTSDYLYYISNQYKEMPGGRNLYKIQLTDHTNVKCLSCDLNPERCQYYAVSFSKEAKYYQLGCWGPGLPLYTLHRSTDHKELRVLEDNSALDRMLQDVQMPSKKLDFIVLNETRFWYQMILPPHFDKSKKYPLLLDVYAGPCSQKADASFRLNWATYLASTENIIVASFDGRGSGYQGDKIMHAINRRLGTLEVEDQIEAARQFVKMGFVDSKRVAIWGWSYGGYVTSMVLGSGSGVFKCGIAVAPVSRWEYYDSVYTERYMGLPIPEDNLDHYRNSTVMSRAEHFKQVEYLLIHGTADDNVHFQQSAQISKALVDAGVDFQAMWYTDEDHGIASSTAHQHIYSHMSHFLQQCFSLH
# T2 sequence (P27487 39-766 limits assumed): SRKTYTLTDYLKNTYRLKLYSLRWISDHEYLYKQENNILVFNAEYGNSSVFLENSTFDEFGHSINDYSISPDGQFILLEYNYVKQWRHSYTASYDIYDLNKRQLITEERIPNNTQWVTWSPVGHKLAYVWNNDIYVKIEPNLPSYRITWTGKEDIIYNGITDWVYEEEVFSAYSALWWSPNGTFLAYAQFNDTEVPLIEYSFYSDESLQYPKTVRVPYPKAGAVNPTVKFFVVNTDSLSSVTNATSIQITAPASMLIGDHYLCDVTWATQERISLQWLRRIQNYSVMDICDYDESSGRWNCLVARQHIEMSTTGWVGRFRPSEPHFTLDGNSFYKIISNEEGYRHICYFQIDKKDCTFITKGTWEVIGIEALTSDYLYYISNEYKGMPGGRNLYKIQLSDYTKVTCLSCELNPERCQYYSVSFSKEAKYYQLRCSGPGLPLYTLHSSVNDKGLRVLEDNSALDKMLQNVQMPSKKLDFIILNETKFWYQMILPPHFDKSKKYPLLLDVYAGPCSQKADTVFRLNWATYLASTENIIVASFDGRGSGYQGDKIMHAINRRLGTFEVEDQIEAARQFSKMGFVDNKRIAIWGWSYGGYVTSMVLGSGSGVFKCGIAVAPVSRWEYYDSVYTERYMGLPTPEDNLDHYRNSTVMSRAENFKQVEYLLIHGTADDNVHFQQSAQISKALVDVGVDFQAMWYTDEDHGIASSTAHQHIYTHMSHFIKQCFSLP
Substance,survival [1],DPPIV dose response (DPPIV [2]),inflammatory response to LPS stimulation (cytokine levels) [3],plasma DPPIV activity in human blood (DPPIV [4])
KSRIVP (IMMUNOLOGICAL PEPTIDE) [SEQ ID NO 1],enhanced survival,–,–,–
"KSRIVPAIPVSLL [ID NO; 7 in PCT/CA02/01830, filed Dec; 2, 2002, reference compound]",–,A similar dose response was absent,–,–
RIVPA [SEQ ID NO 5],enhanced survival,larger decrease in DPPIV activity with increasing peptide concentration,decreased inflammatory response to LPS stimulation,comparable to that determined in mouse blood
